From ChEMBL document CHEMBL2384905, “Therapeutic agents triggering nonapoptotic cancer cell death” (J Med Chem, 2013)

Key:
Format in all cases: functional, Homo sapiens, Cancer cell lines
[1] = Antitumor activity against lung cancer cells in lung cancer patient assessed as tumor growth inhibition relative to control
[2] = Antitumor activity against lung cancer cells in lung cancer patient assessed as survival rate relative to control
[3] = Antitumor activity against lung cancer cells in lung cancer patient assessed as remission rate relative to control

Compound: CC(C)=CC[C@@H](O)C1=CC(=O)c2c(O)ccc(O)c2C1=O [SHIKONIN]
- TGI [1]: 63%
- Survival [2]: 47%
- Activity [3]: 37%
